Test results reported in the supplement of paper PMC10331698.
± gives the standard deviation of the averaged measurements.

What was measured:
Assay in all cases: level (log10 ratio to DMSO vehicle control); higher = higher biomarker level / cell amount than vehicle control
Conditions in all cases: in DMSO
[1] = compound: C=C(C)C(=O)OCC(F)(F)C(F)(F)C(F)(F)C(F)(F)C(F)(F)C(F)(F)C(F)(F)F
Procedure: (§1)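 BioMAP Diversity Plus panel of 12 human primary cell co-culture systems (3C, 4H, LPS, SAg, BT, BF4T, BE3C, CASM3C, HDF3CGF, KF3CT, MyoF, Mphg). Compounds were added 1 h before stimulation and left for 24 h (MyoF 48 h; BT 72 h for soluble read-outs or 6 d for IgG). Biomarkers were read by ELISA, cytotoxicity by SRB, PBMC viability and proliferation by Alamar Blue. Each well value was divided by the mean of 8 DMSO control wells on the same plate and log10 transformed; duplicate blinded samples were tested at 4 concentrations.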

[2] = compound: CC(C)(C)C(=O)CC(=O)C(F)(F)C(F)(F)C(F)(F)F [(Heptafluorobutanoyl)pivaloylmethane]
Procedure: as §1

[3] = compound: NC(=O)C(F)(F)C(F)(F)C(F)(F)C(F)(F)C(F)(F)C(F)(F)C(F)(F)F [Perfluorooctanamide]
Procedure: as §1

[4] = compound: O=C(O)C(F)(F)C(F)(F)C(F)(F)C(=O)O [Hexafluoroglutaric acid]
Procedure: as §1

[5] = compound: O=C(O)C(F)(F)OC(F)(F)C(F)(F)OC(F)(F)C(F)(F)C(F)(F)C(F)(F)F [Perfluoro-3,6-dioxadecanoic acid]
Procedure: as §1

[6] = compound: O=S(=O)(O)C(F)(F)C(F)(F)C(F)(F)C(F)(F)C(F)(F)C(F)(F)C(F)(F)C(F)(F)F [Perfluorooctanesulfonic acid]
Procedure: as §1

[7] = compound: O=S(=O)(O)C(F)(F)C(F)(F)C(F)(F)C(F)(F)C(F)(F)C(F)(F)C(F)(F)C(F)(F)F [Potassium perfluorooctanesulfonate]
Procedure: as §1

Test System | level (log10) ([1]; 6700 nM) | level (log10) ([1]; 20000 nM) | level (log10) ([2]; 6700 nM) | level (log10) ([2]; 20000 nM) | level (log10) ([2]; 60000 nM) | level (log10) ([3]; 6700 nM) | level (log10) ([3]; 20000 nM) | level (log10) ([3]; 60000 nM) | level (log10) ([4]; 6700 nM) | level (log10) ([4]; 20000 nM) | level (log10) ([4]; 60000 nM) | level (log10) ([5]; 6700 nM) | level (log10) ([5]; 20000 nM) | level (log10) ([5]; 60000 nM) | level (log10) ([6]; 6700 nM) | level (log10) ([6]; 20000 nM) | level (log10) ([6]; 60000 nM) | level (log10) ([7]; 6700 nM) | level (log10) ([7]; 20000 nM) | level (log10) ([7]; 60000 nM)
BT:sIL-6 | 0.016 ± 0.0057 | -0.019 ± 0.059 | -0.038 ± 0.038 | -0.029 ± 0.0057 | -0.013 ± 0.023 | 0.01 ± 0.023 | 0.0355 ± 0.03 | -0.07 ± 0.025 | -0.0105 ± 0.11 | 0.0275 ± 0.021 | -0.0155 ± 0.088 | 0.0375 ± 0.029 | 0.0265 ± 0.039 | -0.058 ± 0.033 | 0.0325 ± 0.06 | -0.0415 ± 0.046 | -0.0185 ± 0.039 | 0.0165 ± 0.042 | 0.0765 ± 0.016 | -0.023 ± 0.11
BF4T:Keratin 8/18 | 0.014 ± 0.0028 | -0.003 ± 0.0014 | -0.007 ± 0.061 | -0.024 ± 0.041 | 0.0145 ± 0.0035 | -0.023 ± 0.018 | 0.002 ± 0.021 | -0.0075 ± 0.023 | -0.006 ± 0.013 | -0.0145 ± 0.015 | 0.0005 ± 0.00071 | -0.0125 ± 0.0064 | -0.0225 ± 0.011 | 0.004 ± 0.033 | -0.009 ± 0.0014 | -0.0015 ± 0.0021 | 0.0135 ± 0.021 | -0.0035 ± 0.022 | 0.01 ± 0.014 | 0.0385 ± 0.053
4H:CD62P/P-selectin | -0.0205 ± 0.076 | -0.0315 ± 0.063 | -0.045 ± 0.089 | -0.032 ± 0.078 | -0.076 ± 0.16 | -0.0005 ± 0.0078 | -0.0225 ± 0.022 | -0.02 ± 0.024 | 0.0065 ± 0.0035 | -0.035 ± 0.0014 | -0.05 ± 0.064 | 0.015 ± 0.09 | 0.0205 ± 0.066 | 0.0165 ± 0.013 | 0.0345 ± 0.0078 | 0.061 ± 0.016 | 0.097 ± 0.018 | 0.0375 ± 0.015 | 0.085 ± 0.0042 | 0.086 ± 0.027
BT:sIL-2 | 0.012 ± 0.0099 | 0.0075 ± 0.047 | -0.0485 ± 0.069 | -0.022 ± 0.0057 | 0.0155 ± 0.067 | 0.0115 ± 0.063 | 0.0045 ± 0.084 | -0.176 ± 0.17 | -0.006 ± 0.11 | 0.0205 ± 0.039 | 0.061 ± 0.013 | 0.0465 ± 0.036 | 0.0285 ± 0.16 | -0.011 ± 0.095 | 0.0065 ± 0.0078 | -0.0215 ± 0.044 | 0.014 ± 0.027 | 0.042 ± 0.027 | 0.0595 ± 0.029 | -0.0325 ± 0.077
BF4T:CD54/ICAM-1 | -0.0015 ± 0.016 | -0.0075 ± 0.0064 | -0.006 ± 0.0014 | -0.0145 ± 0.005 | -0.0155 ± 0.015 | -0.0175 ± 0.0064 | -0.006 ± 0.014 | -0.015 ± 0.0028 | 0.0025 ± 0.005 | -0.01 ± 0.0057 | 0.006 ± 0.011 | -0.04 ± 0.0057 | -0.0335 ± 0.0035 | -0.0365 ± 0.005 | -0.0065 ± 0.019 | -0.0115 ± 0.028 | -0.018 ± 0.014 | 0.0055 ± 0.032 | 0.0025 ± 0.012 | 0.0215 ± 0.035
BE3C:EGFR | -0.0175 ± 0.011 | -0.0295 ± 0.011 | 0.0095 ± 0.016 | -0.0055 ± 0.023 | -0.0175 ± 0.00071 | 0.012 ± 0.011 | -0.002 ± 0.0085 | 0.035 ± 0.016 | -0.0055 ± 0.0035 | -0.0175 ± 0.005 | 0.0025 ± 0.012 | -0.02 ± 0.02 | -0.0485 ± 0.019 | -0.122 ± 0.0092 | 0.0025 ± 0.023 | -0.125 ± 0.059 | -0.159 ± 0.12 | -0.012 ± 0.021 | -0.173 ± 0.043 | -0.182 ± 0.071
